Results: publication PMC4703387, “Identification of the Calmodulin-Binding Domains of Fas Death Receptor” (PLoS ONE, 2016)
Where no end group is shown, it is not given here.

Columns and labels:
Ca^2+/CaM-N = target: T1, Ca^2+/CaM-N (Homo sapiens, UniProt P0DP23); experiment: NMR titration (2D 1H-15N HSQC) of isolated N-terminal lobe; format: binding; conditions: 1H-15N HSQC titration
T1 construct: ^15N-labled samples of the isolated Ca^2+/CaM-N and Ca^2+/CaM-C domains; made in house
Method: NMR data were collected at 35°C on a Bruker Avance II (700 MHz ^1H) spectrometer equipped with a cryogenic triple-resonance probe, processed with NMRPIPE [35] and analyzed with NMRVIEW [36] or CCPN Analysis. […] For signal assignments of the complexes, ^13C-, ^15N-, or ^13C-/^15N-labeled Ca^2+/CaM at ~400–500 μM was mixed with unlabeled Fas-Pep1 (in 100% DMSO-d6) or Fas-Pep2 at 1.5:1 peptide:Ca^2+/CaM. […] The backbone atom resonances of Ca^2+/CaM complexes with Fas-Pep1 and Fas-Pep2 were assigned using HNCA, HN(CO)CA, HNCACB, HNCO, HN(CO)CACB and ^15N-edited NOESY-HSQC and TOCSY-HSQC experiments. These experiments have been also collected on ^15N-, or ^13C-/^15N-labeled Fas-Pep2 in complex with unlabeled Ca^2+/CaM to confirm the α-helical character of Fas-Pep2 when bound to Ca^2+/CaM. […] Combined ^1H-^15N chemical shift changes were calculated as ΔδHN = [(ΔδH)^2+(ΔδN/5)^2]^1/2, where ΔδH and ΔδN are the ^1H and ^15N chemical shift changes, respectively. Kd values were calculated by non-linear least-square fitting algorithm in Origin software (OriginLab, Northampton, MA) using the equation: ΔδHN=ΔδHN^max((Kd+L0+P0)−((Kd+L0+P0)^2−4*P0*L0)^0.5)/(2*P0) where ΔδHN^max is the chemical shift change between complex and free protein, L0 total concentration of ligand, and P0 total concentration of protein. […]

Ca^2+/CaM [1] = target: T2, Ca^2+/CaM (Homo sapiens, UniProt P0DP23); experiment: Circular dichroism (CD) spectroscopy; format: physicochemical; conditions: 25°C, 10 mM HEPES (pH 7), 50 mM KCl, 2.5 mM CaCl2
T2 construct: made in house
Method: CD spectra were acquired on a Jasco J815 spectropolarimeter at 25°C from 260 to 185 nm. Scanning rate was set to 50 nm/min. Loading concentrations were ~16–20 μM for free peptides, 18 μM for free Ca^2+/CaM and 10 μM for the complexes in a buffer containing 10 mM HEPES (pH 7), 50 mM KCl, and 2.5 mM CaCl2. The background signal from the buffer solution was subtracted from each spectrum. Ca^2+/CaM complexes with peptides were run on gel filtration column (as described above) to ensure high purity and homogeneity prior to collection of the CD spectra.

Ca^2+/CaM [2] = target: T2, Ca^2+/CaM; experiment: 2D 1H-13C HMQC of 13C-labeled Ca^2+/CaM methionine methyl groups; format: binding
Text: In the second approach, we assessed the role of hydrophobic surfaces located on the N- and C-terminal lobes of Ca^2+/CaM. These hydrophobic surfaces, which contribute to the flexibility and function of Ca^2+/CaM, are only formed when Ca^2+ is bound.[24] Ca^2+ binding induces a helical rearrangement, leading to exposure of eight methionine (Met) residues.[46, 47] Met residues are essential for the unique promiscuous binding behavior of Ca^2+/CaM to target proteins.[47] The methyl groups of Met residues are useful “NMR reporters” and widely used to probe for target binding.[34, 42, 47–49] Five Met residues (36, 51, 71, 72 and 76) are located in the N-terminal lobe and four (109, 124, 144, and 145) are located within the hydrophobic patch in the C-terminal lobe (Fig 8A). To assess whether the N- and C-terminal hydrophobic surfaces contribute to the binding of FasDD peptides, we collected 2D ^1H-^13C HMQC data on a uniformly ^13C-labeled Ca^2+/CaM sample as titrated with Fas-Pep1 or Fas-Pep2. Addition of a substoichiometric amount of Fas-Pep1 (0.5:1 peptide:Ca^2+/CaM) led to a decrease in the intensity of ^1H-^13C signals of M51, M71, M72, M109, M124 and M145 (Fig 8B, upper panel). Minimal or no chemical shift changes have been observed for signals corresponding to M76 and M144. Further addition of Fas-Pep1 led to appearance of new signals (Fig 8B). […]

Ca^2+/CaM [3] = target: T2, Ca^2+/CaM; experiment: NMR (HSQC, 3D 15N-edited HSQC-NOESY, TALOS+) of 15N-/13C-labeled Fas-Pep2; format: physicochemical
Method: NMR data were collected at 35°C on a Bruker Avance II (700 MHz ^1H) spectrometer equipped with a cryogenic triple-resonance probe, processed with NMRPIPE [35] and analyzed with NMRVIEW [36] or CCPN Analysis. […] For signal assignments of the complexes, ^13C-, ^15N-, or ^13C-/^15N-labeled Ca^2+/CaM at ~400–500 μM was mixed with unlabeled Fas-Pep1 (in 100% DMSO-d6) or Fas-Pep2 at 1.5:1 peptide:Ca^2+/CaM. […] The backbone atom resonances of Ca^2+/CaM complexes with Fas-Pep1 and Fas-Pep2 were assigned using HNCA, HN(CO)CA, HNCACB, HNCO, HN(CO)CACB and ^15N-edited NOESY-HSQC and TOCSY-HSQC experiments. These experiments have been also collected on ^15N-, or ^13C-/^15N-labeled Fas-Pep2 in complex with unlabeled Ca^2+/CaM to confirm the α-helical character of Fas-Pep2 when bound to Ca^2+/CaM. The chemical shifts of Ca^2+/CaM-bound Fas-Pep2 were used to predict its order parameters and secondary structure content in TALOS+.[38] Combined ^1H-^15N chemical shift changes were calculated as ΔδHN = [(ΔδH)^2+(ΔδN/5)^2]^1/2, where ΔδH and ΔδN are the ^1H and ^15N chemical shift changes, respectively. Kd values were calculated by non-linear least-square fitting algorithm in Origin software (OriginLab, Northampton, MA) using the equation: ΔδHN=ΔδHN^max((Kd+L0+P0)−((Kd+L0+P0)^2−4*P0*L0)^0.5)/(2*P0) where ΔδHN^max is the chemical shift change between complex and free protein, L0 total concentration of ligand, and P0 total concentration of protein.
Far-UV CD spectra of Ca^2+/CaM, Fas-Pep1, Fas-Pep2 and their complexes have been obtained to determine whether formation of the complexes induce any major changes in the secondary structures of the peptides and/or Ca^2+/CaM protein. […] The CD spectra of the complexes are similar to those of Ca^2+/CaM with features distinctive of an α-helical type. Relatively minor changes are observed in the CD signal of Ca^2+/CaM upon binding to FasDD peptides. […] Induction of the α-helical character of Fas-Pep2 upon binding to Ca^2+/CaM has been confirmed by NMR spectroscopy. […]

CSPs on Ca^2+/CaM-N (Ca^2+/CaM-N): significant CSPs for numerous residues
secondary structure of free peptide/protein (Ca^2+/CaM [1]; far-UV CD, ~16–20 μM peptide, 18 μM Ca^2+/CaM): random coil
Sequence: VQDTAEQKVQLLRNWHQLHGKKEAYDTLIKDLKKANLC [Fas-Pep2]
change in CD signal at 208 and 222 nm of Ca^2+/CaM on peptide binding (Ca^2+/CaM [1]; complex 10 μM): An increase in the intensity of the CD signal at 208 and 222 nm
CSPs of Met resonances on binding (Ca^2+/CaM [2]): Notable CSPs are also observed in all of the ^1H-^13C resonances of Met residues
conformation when bound to Ca^2+/CaM (NOESY) (Ca^2+/CaM [3]; 3D 15N-edited HSQC-NOESY): adopts an α-helical conformation upon binding to CaM
conformation of free peptide (NMR) (Ca^2+/CaM [3]; 15N-Fas-Pep2, 1H-15N HSQC, 35°C, pH 7.0): lack of ordered structure
conformation when bound to Ca^2+/CaM (chemical shift index, TALOS+) (Ca^2+/CaM [3]; prediction from measured chemical shifts): adopts an α-helical conformation upon binding to Ca^2+/CaM
